Results on 9 molecules are retold here after ChEMBL document CHEMBL1157535, “2-Aminobenzophenones as a novel class of bradykinin B1 receptor antagonists” (J Med Chem, 2008).

The structures appear in SMILES notation. Bounds are passed on as bounds.

Data set [1] is described as follows: in vivo. The conditions noted are these: Sprague-Dawley, rat, iv, 2 mg/kg.
Data set [2] relates to Plasma. In words: Drug level in transgenic rat plasma at 0.12 mg/kg, iv. It counts as ADME, organism-based. Further details: dose 0.12 mg/kg, route intravenous. The conditions noted are these: in vivo.
In data set [3] the test system is human MDR1 (P-gp). Put plainly: (§1) Apparent permeability in pig LLC-PK1 cells transfected with human MDR1. It counts as ADME, cell-based, Sus scrofa. The settings on record: LLC-PK1.
Data set [4] is filed under the species Rattus norvegicus. The settings on record: in vivo.
In data set [5] the test system is Brain. Put plainly: Drug level in transgenic rat brain at 1.2 mg/kg, iv. The settings on record: in vivo. Type of data set: ADME, organism-based. Further details: dose 1.2 mg/kg, route intravenous.
A short description of data set [6]: in vivo. The conditions noted are these: Sprague-Dawley, rat, po, 10 mg/kg, F.
In data set [7] the test system is Plasma. In words: Drug level in transgenic rat plasma at 1.2 mg/kg, iv. It counts as ADME, organism-based. Set-up: dose 1.2 mg/kg, route intravenous. The settings on record: in vivo.
Data set [8] concerns Spinal cord. In words: Drug level in transgenic rat spinal cord at 0.12 mg/kg, iv. Further details: dose 0.12 mg/kg, route intravenous. It counts as ADME, organism-based. The conditions noted are these: in vivo.
Data set [9] relates to Spinal cord. Put plainly: Drug level in transgenic rat spinal cord at 1.2 mg/kg, iv. It counts as ADME, organism-based. Set-up: dose 1.2 mg/kg, route intravenous. The conditions noted are these: in vivo.
A short description of data set [10]: in vivo. The settings on record: mongrel, dog, iv, 0.25 mg/kg, CL.
Data set [11] is described as follows: in vivo. The settings on record: mongrel, dog, iv, 0.25 mg/kg, t1/2.
Data set [12] relates to Brain. Put plainly: Drug level in transgenic rat brain at 12 mg/kg, iv. Type of data set: ADME, organism-based. Set-up: dose 12 mg/kg, route intravenous. The conditions noted are these: in vivo.
In data set [13] the test system is Plasma. Put plainly: Drug level in transgenic rat plasma at 12 mg/kg, iv. It counts as ADME, organism-based. Set-up: dose 12 mg/kg, route intravenous. The settings on record: in vivo.
Data set [14] concerns Brain. Put plainly: Drug level in transgenic rat brain at 0.12 mg/kg, iv. Type of data set: ADME, organism-based. Set-up: dose 0.12 mg/kg, route intravenous. The settings on record: in vivo.
For data set [15], the system named is Spinal cord. In words: Drug level in transgenic rat spinal cord at 12 mg/kg, iv. Further details: dose 12 mg/kg, route intravenous. The conditions noted are these: in vivo. It counts as ADME, organism-based.
A short description of data set [16]: in vivo. The settings on record: Sprague-Dawley, rat, t1/2.
A short description of data set [17]: Metabolic stability in monkey liver microsomes after 30 mins. The conditions noted are these: rhesus monkey, read-out: Stability. It counts as ADME, Macaca mulatta, Microsome. On the technique in general: Microsomes from liver hold many membrane-bound enzymes, among them those of drug oxidation.
Data set [18] can be described thus: Metabolic stability in Sprague-Dawley rat liver microsomes after 30 mins. Type of data set: ADME, Microsome. The settings on record: read-out: Stability.
Data set [19] in a line: Metabolic stability in Beagle dog liver microsomes after 30 mins. It counts as ADME, Canis lupus familiaris, Microsome. The settings on record: read-out: Stability.
Data set [20] is described as follows: Metabolic stability in human liver microsomes after 30 mins. The conditions noted are these: read-out: Stability. It counts as ADME, Microsome.
Data set [21] relates to LLC-PK1. Described as §1. It counts as ADME, cell-based, Sus scrofa. The conditions noted are these: llc-pk1.
Data set [22] is filed under the species Canis familiaris. The settings on record: dog, in vivo, iv, 0.25 mg/kg.
The species named for data set [23] is Rattus norvegicus. The conditions noted are these: in vivo, po, 10 mg/kg.

For the molecule `O=C(Nc1ccc(S(=O)(=O)Nc2ccccc2C(=O)c2ccccc2)cc1)OCC1CCCO1` (stereo not drawn), the results for the clearance in data set [1] and in data set [10] were 43 mL/min/kg and 17 mL/min/kg, respectively. Besides, the concentration in data set [2] worked out at 80 nM; in data set [5], 438 nM; in [7] it was 995 nM; in data set [8], 97 nM; in [9], 597 nM; in [12], 5840 nM. Besides, the concentration in [13] came to 13200 nM; in data set [14], 70 nM; in data set [15], 9430 nM. The apparent permeability (Papp) (in general, the rate of passage across a membrane or cell layer, normalised by area and donor concentration) in [3] was determined as 26 ×10⁻⁶ cm/s. In [4], the t1/2 was determined as 9.7 h. In data set [6], the bioavailability (as a rule, dose-corrected exposure relative to a reference, in per cent) came out at 3%. Moreover, the half-life – broadly, how long it takes for the measured level to halve – in [11] was 1.9 h.
Take `CC(=O)Nc1ccc(S(=O)(=O)Nc2ccccc2C(=O)c2ccccn2)cc1`: the clearance (usually the rate of elimination divided by the concentration) in data set [1] came out at 24 mL/min/kg; in [10], 1.2 mL/min/kg. Also, in data set [6], the bioavailability came to 11%. In addition, the half-life in data set [11] and in data set [16] was 1.2 h throughout.
As for `CC(=O)Nc1ccc(S(=O)(=O)Nc2ccccc2C(=O)c2ccccc2)cc1`, the clearance in data set [1] was found to be 26 mL/min/kg; in data set [10] it was 7.5 mL/min/kg. The Papp in data set [3] is 27 ×10⁻⁶ cm/s. For the same molecule, in data set [4], the t1/2 was found to be 0.3 h. The remaining at 0.5 h in data set [17], in data set [18], in [19] and in data set [20] was < 10% each time. Also, the bioavailability in data set [6] came out at 3%. This molecule also showed a half-life in data set [11] of 0.5 h.
In the case of `O=C(NCCCN1CCCCC1)Nc1ccc(S(=O)(=O)Nc2ccccc2C(=O)c2ccccc2)cc1`, the clearance in [1] was determined as 29 mL/min/kg; in data set [10] it was 17 mL/min/kg. Further, the Papp in data set [3] stood at 34 ×10⁻⁶ cm/s. This molecule also displayed a t1/2 in [4] of 14 h. In data set [6], this molecule came in with a bioavailability of 41%. The same molecule had a half-life in [11] of 1.5 h.
For `O=C(Nc1ccc(S(=O)(=O)Nc2ccccc2C(=O)c2ccccn2)cc1)OCC1CCCO1` (racemic), the Papp in data set [21] is 31 ×10⁻⁶ cm/s. The t1/2 in data set [4] and in [22] was 1.4 h throughout. The F in data set [23] was determined as 17%.
Take `O=C(Nc1ccc(S(=O)(=O)Nc2ccccc2C(=O)c2ccccn2)cc1)OCC1CCCO1` (stereo in doubt; 28): the t1/2 in [22] is 2.6 h.
As for `O=C(Nc1ccc(S(=O)(=O)Nc2ccccc2C(=O)c2ccccn2)cc1)OCC1CCCO1` (stereo in doubt; 29), the clearance in data set [1] was found to be 40 mL/min/kg; in [10], 2.9 mL/min/kg. Also, the Papp in data set [3] was found to be 33 ×10⁻⁶ cm/s. Moreover, the half-life in [11] was 2.2 h; in data set [16], 1.7 h. Moreover, in [23], the F came out at 3%.
As to `O=C(Nc1ccc(S(=O)(=O)Nc2ccccc2C(=O)c2ccc(F)cn2)cc1)OCC1CCCO1` (stereo in doubt; 30), in data set [3], the apparent permeability coefficient (Papp) was found to be 26 ×10⁻⁶ cm/s. Moreover, in [22], the t1/2 was 1.8 h.
`O=C(Nc1ccc(S(=O)(=O)Nc2ccccc2C(=O)c2ccc(F)cn2)cc1)OCC1CCCO1` (stereo in doubt; 32) came in with a clearance in data set [1] of 26 mL/min/kg. The bioavailability in [6] is < 1%. Besides, the figures for the half-life in data set [11] and in data set [16] were 2.8 h and 1.1 h, respectively.
